Patent US11299715B2, “Use of iNOS inhibitors to increase viral yield in culture” (priority 2013, dated 2022)

Test system: d27-1/GFP HSV-1
Assay: Effect of valproic acid pretreatment on d27-1/GFP HSV-1 viral titer in V27 cells
Format: cell-based
Protocol: Valproic acid (Sigma-P4543) was dissolved to 1 M concentration in water. V27 cells were seeded into six well plates the day prior to infection at 6×10^5 cells/well. […] This was vortexed well and added to the wells. Plates were incubated for six hours, aspirated and infectious HSV-1 d27-1 stock added at MOI 0.15 (=cell seed density×0.15/pfu titer of HSV stock) per 1 ml of DMEM (no additives).
1 ml of infectious inoculum was added per well and incubated for 1-2 hours at 37° C., 5% CO2 incubator after which time 1.5 ml of DMEM-10% FBS was added. The plates were returned to the incubator for 70-74 hours. Free media was harvested, vortexed, and centrifuged at 1,100×g for 10 minutes at 4° C. Supernatant was transferred to a new dispensing tube, vortexed, and aliquoted. Stocks were frozen at −80° C.
V27 cells were seeded into six well plates the day prior to infection at 6×10^5 cells/well and the next day, different concentrations of VA were added to wells. Plates were incubated for 6 hrs, aspirated and ⅖ vol of media containing infectious HSV-1 d27-1 stock was added and incubated for 1-2 hours at 37° C., […] after which time ⅗ vol of DMEM 10% FBS media was added. The cultures were returned to the incubator and supernatant was harvested after 70-74 hours.

CCCC(CCC)C(=O)O [VA, valproic acid]
titer of d27-1/GFP HSV-1 compared to untreated control (VA 5 mM, 6 hrs pretreatment): slightly elevated | titer of d27-1/GFP HSV-1 compared to untreated control (VA concentrations below and above 5 mM, pretreatment): inhibitory effect
